Patent US20240009191A1, “METHOD AND COMPOSITION FOR THE TREATMENT OF DISEASE” (DIMERIX BIOSCIENCE PTY LTD, priority 2019, published 2024)

Experiments:
Format in all cases: cell-based
AT1R-CXCR2 heteromer [1] = biological target: T1, AT1R-CXCR2 heteromer (Homo sapiens, UniProt P25025+P30556); assay: BRET trafficking of AT1R/Rluc8 (Venus/Kras, Rab5) with unlabelled CXCR2, pre-treatment with vehicle or antagonists/inverse agonists; details: 50 minutes after pre-treatment (10 μM)
T1 sequence (P30556 1-359): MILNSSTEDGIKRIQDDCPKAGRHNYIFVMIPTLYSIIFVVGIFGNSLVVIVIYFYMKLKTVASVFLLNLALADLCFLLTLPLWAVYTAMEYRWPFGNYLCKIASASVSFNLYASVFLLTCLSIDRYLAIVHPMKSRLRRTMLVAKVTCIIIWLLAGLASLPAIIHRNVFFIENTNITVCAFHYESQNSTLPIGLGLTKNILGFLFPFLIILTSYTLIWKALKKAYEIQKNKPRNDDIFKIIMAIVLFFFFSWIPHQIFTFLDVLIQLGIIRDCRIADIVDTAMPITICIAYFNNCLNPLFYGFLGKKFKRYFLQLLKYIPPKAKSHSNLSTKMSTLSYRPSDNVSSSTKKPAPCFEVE
T1 sequence (P25025 1-360): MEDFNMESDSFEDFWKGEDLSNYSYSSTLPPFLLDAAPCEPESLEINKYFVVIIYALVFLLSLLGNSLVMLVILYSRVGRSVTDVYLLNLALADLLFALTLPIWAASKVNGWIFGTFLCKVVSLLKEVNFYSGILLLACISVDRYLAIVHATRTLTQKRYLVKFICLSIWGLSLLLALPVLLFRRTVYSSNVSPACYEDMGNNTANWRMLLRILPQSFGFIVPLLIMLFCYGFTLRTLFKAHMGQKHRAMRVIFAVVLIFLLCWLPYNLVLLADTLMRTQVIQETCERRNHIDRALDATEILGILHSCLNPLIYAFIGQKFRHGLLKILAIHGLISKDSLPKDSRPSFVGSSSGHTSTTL
Experimental: (§1) HEK293FT cells were seeded in 6-well plates at a density of approximately 700,000 cells/well and maintained at 37° C., 5% CO2 in Complete Media (DMEM containing 0.3 mg/ml glutamine, 100 IU/ml penicillin and 100 μg/ml streptomycin (Gibco/Thermo Fisher)) supplemented with 10% fetal calf serum (FCS; Bovogen). Transient transfections were carried out 24 h after seeding using FuGene6™ (Promega) according to manufacturer instructions. 24 h post-transfection, cells were washed with PBS, detached using 0.05% trypsin/0.53 mM EDTA, resuspended in HEPES-buffered phenol red free Complete Media containing 5% FCS and added to a poly-L-lysine-coated white 96-well microplate (Greiner Bio-One). 48 h post-transfection, bioluminescence resonance energy transfer (BRET) assays were carried out following pre-incubation of cells with EnduRen™ (Promega) at a final concentration of 30 μM, at 37° C., 5% CO2 for 2 h. BRET measurements were taken at 37° C. using the LUMlstar™ or CLARIOstar™ (BMG Labtech).
(§2) For antagonist/inverse agonist assays, cells were pre-incubated with EnduRen for 1.5 hours, followed by the addition of vehicle or antagonists/inverse agonists (10 μM) for another 30 minutes.
(§3) The BRET signal observed between interacting proteins is normalized by subtracting the background BRET ratio. […] In the following examples, the second calculation will be used and the signal is described as ligand-induced BRET′. Furthermore, for data shown in FIGS. 4 to 20, all data points in a given set are corrected relative to the final data point prior to agonist treatment, which is fixed to zero. In keys on FIGS. 7 to 20, “>” means “followed by after 50 minutes”, with agonists added at time zero on the x-axes.
(§4) Prior to agonist treatment (added at 0 minutes), a baseline BRET signal was recorded for each of the combinations for 20 minutes. Data were calculated as ligand-induced BRET relative to the ‘vehicle followed by vehicle’ (veh>veh) data set.

AT1R-CXCR2 heteromer [2] = biological target: T2, AT1R-CXCR2 heteromer (Homo sapiens, UniProt P25025+P30556); assay: BRET Gi coupling, CXCR2/Rluc8, Venus/mGsi and HA-AT1R, pre-treatment with antagonists/inverse agonists; details: FIGS. 6-15
T2 sequence (P25025 1-360): T1 sequence (P25025 1-360)
T2 sequence (P30556 1-359): T1 sequence (P30556 1-359)
Experimental: as §1, §2, §3, §4

AT1R-CXCR2 heteromer [3] = biological target: T2, AT1R-CXCR2 heteromer; assay: BRET trafficking of CXCR2/Rluc8 (Venus/Kras, Rab5, Rab8) with HA-AT1R, pre-treatment with vehicle or antagonists/inverse agonists; details: 50 minutes after pre-treatment (10 μM)
Experimental: as §1, §2, §3, §4

## CCCCC(=O)N(Cc1ccc(-c2ccccc2-c2nnn[nH]2)cc1)[C@H](C(=O)O)C(C)C [valsartan]
AT1R-CXCR2 heteromer [1]; 10 nM CXCL8 and 100 nM AngII, FIG. 19B-19F
  effect of both CXCL8 and AngII combined on AT1R/Rluc8-Venus/Kras BRET: completely inhibited
AT1R-CXCR2 heteromer [1]; 10 nM CXCL8 and 100 nM AngII, FIG. 20B-20F
  effect of both CXCL8 and AngII combined on AT1R/Rluc8-Venus/Rab5 BRET: completely inhibited
AT1R-CXCR2 heteromer [1]; 100 nM AngII only, FIG. 19A
  effect of AngII on AT1R/Rluc8-Venus/Kras BRET: completely inhibited
AT1R-CXCR2 heteromer [1]; 100 nM AngII only, FIG. 20A
  effect of AngII on AT1R/Rluc8-Venus/Rab5 BRET: completely inhibited
AT1R-CXCR2 heteromer [2]; 10 nM CXCL8, 50 minutes after pre-treatment with antagonists/inverse agonists (10 μM)
  effect of CXCL8 only on CXCR2/Rluc8-Venus/mGsi BRET: not being altered
AT1R-CXCR2 heteromer [2]; 10 nM CXCL8 and 100 nM AngII, 50 minutes after pre-treatment with antagonists/inverse agonists (10 μM)
  effect of CXCL8 and AngII combined on CXCR2/Rluc8-Venus/mGsi BRET: indistinguishable from that observed with CXCL8 only
AT1R-CXCR2 heteromer [2]; 100 nM AngII, 50 minutes after pre-treatment with antagonists/inverse agonists (10 μM)
  effect of AngII only on CXCR2/Rluc8-Venus/mGsi BRET: completely inhibited
AT1R-CXCR2 heteromer [3]; 10 nM CXCL8 and 100 nM AngII, FIG. 16C, 16E-16H
  effect of both CXCL8 and AngII combined on CXCR2/Rluc8-Venus/Kras BRET: indistinguishable from the effect observed with CXCL8 only
AT1R-CXCR2 heteromer [3]; 10 nM CXCL8 and 100 nM AngII, FIG. 17C, 17E-17H
  effect of both CXCL8 and AngII combined on CXCR2/Rluc8-Venus/Rab5 BRET: indistinguishable from the effect observed with CXCL8 only
AT1R-CXCR2 heteromer [3]; 10 nM CXCL8 and 100 nM AngII, FIG. 18C, 18E-18H
  effect of both CXCL8 and AngII combined on CXCR2/Rluc8-Venus/Rab8 BRET: completely inhibited
AT1R-CXCR2 heteromer [3]; 100 nM AngII only, FIG. 16B, 16D
  effect of AngII on CXCR2/Rluc8-Venus/Kras BRET: completely inhibited
AT1R-CXCR2 heteromer [3]; 100 nM AngII only, FIG. 17B, 17D
  effect of AngII on CXCR2/Rluc8-Venus/Rab5 BRET: completely inhibited
AT1R-CXCR2 heteromer [3]; 100 nM AngII only, FIG. 18B, 18D
  effect of AngII on CXCR2/Rluc8-Venus/Rab8 BRET: completely inhibited
